Source: ChEMBL document CHEMBL3769397, “A new GLP-1 analogue with prolonged glucose-lowering activity in vivo via backbone-based modification at the N-terminus” (Bioorg Med Chem, 2016)

Legend:
[1] = target: T1, DPP4 (dipeptidyl peptidase 4) (Homo sapiens, UniProt P27487); test: Half life of compound assessed as recombinant human DPP4-mediated cleavage by RP-HPLC analysis; format: ADME
[2] = Retention time of compound over 30 mins by HPLC analysis; format: physicochemical; conditions: 0.5 h
[3] = target: T1, DPP4 (dipeptidyl peptidase 4); test: Drug degradation assessed as recombinant human DPP4-mediated cleavage by measuring compound remaining after 1 hr by RP-HPLC analysis; format: ADME; conditions: read-out: Stability
[4] = target: T1, DPP4 (dipeptidyl peptidase 4); test: Drug degradation assessed as recombinant human DPP4-mediated cleavage by measuring compound remaining after 2 hrs by RP-HPLC analysis; format: ADME; conditions: read-out: Stability
[5] = target: T1, DPP4 (dipeptidyl peptidase 4); test: Drug degradation assessed as recombinant human DPP4-mediated cleavage by measuring compound remaining after 4 hrs by RP-HPLC analysis; format: ADME; conditions: read-out: Stability
[6] = target: T1, DPP4 (dipeptidyl peptidase 4); test: Drug degradation assessed as recombinant human DPP4-mediated cleavage by measuring compound remaining after 8 hrs by RP-HPLC analysis; format: ADME; conditions: read-out: Stability
[7] = target: T1, DPP4 (dipeptidyl peptidase 4); test: Drug degradation assessed as recombinant human DPP4-mediated cleavage by measuring compound remaining after 12 hrs by RP-HPLC analysis; format: ADME; conditions: read-out: Stability
[8] = target: T1, DPP4 (dipeptidyl peptidase 4); test: Drug degradation assessed as recombinant human DPP4-mediated cleavage by measuring compound remaining after 24 hrs by RP-HPLC analysis; format: ADME; conditions: read-out: Stability
[9] = target: T1, DPP4 (dipeptidyl peptidase 4); test: Drug degradation assessed as recombinant human DPP4-mediated cleavage by measuring compound remaining after 48 hrs by RP-HPLC analysis; format: ADME; conditions: read-out: Stability
[10] = target: T1, DPP4 (dipeptidyl peptidase 4); test: Drug degradation assessed as recombinant human DPP4-mediated cleavage by measuring compound remaining after 72 hrs by RP-HPLC analysis; format: ADME; conditions: read-out: Stability
[11] = target: T1, DPP4 (dipeptidyl peptidase 4); test: Drug degradation assessed as recombinant human DPP4-mediated cleavage by measuring compound remaining after 96 hrs by RP-HPLC analysis; format: ADME; conditions: read-out: Stability

T1 sequence (P27487 whole entry): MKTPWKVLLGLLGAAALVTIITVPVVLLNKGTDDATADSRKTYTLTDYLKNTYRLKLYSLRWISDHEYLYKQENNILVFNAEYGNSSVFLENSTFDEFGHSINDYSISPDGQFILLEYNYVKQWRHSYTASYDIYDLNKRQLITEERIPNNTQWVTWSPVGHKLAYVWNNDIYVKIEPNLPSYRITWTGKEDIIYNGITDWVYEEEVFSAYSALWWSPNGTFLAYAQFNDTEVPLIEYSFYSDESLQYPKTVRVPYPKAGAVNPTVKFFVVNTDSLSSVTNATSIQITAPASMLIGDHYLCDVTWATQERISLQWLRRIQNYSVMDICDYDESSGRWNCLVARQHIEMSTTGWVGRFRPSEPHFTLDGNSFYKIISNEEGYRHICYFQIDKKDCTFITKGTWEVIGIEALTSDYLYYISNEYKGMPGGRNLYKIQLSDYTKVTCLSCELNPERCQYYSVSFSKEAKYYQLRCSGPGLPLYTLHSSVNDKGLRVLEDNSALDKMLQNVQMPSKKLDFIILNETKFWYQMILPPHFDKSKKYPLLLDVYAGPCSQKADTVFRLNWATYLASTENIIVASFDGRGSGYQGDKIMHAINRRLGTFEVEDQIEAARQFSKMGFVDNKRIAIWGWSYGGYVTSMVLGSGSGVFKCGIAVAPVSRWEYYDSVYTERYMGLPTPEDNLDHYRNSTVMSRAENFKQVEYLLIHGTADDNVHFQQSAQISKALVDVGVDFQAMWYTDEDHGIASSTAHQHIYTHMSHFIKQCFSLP

| SMILES | half-life [1] [h] | Retention_time [2] [min] | remaining at 1 h [3] [%] | remaining at 2 h [4] [%] | remaining at 4 h [5] [%] | remaining at 8 h [6] [%] | remaining at 12 h [7] [%] | remaining at 24 h [8] [%] | remaining at 48 h [9] [%] | remaining at 72 h [10] [%] | remaining at 96 h [11] [%] |
| --- | --- | --- | --- | --- | --- | --- | --- | --- | --- | --- | --- |
| CC[C@H](C)[C@H](NC(=O)[C@H](Cc1ccccc1)NC(=O)[C@H](CCC(=O)O)NC(=O)[C@H](CCCCN)NC(=O)[C@H](C)NC(=O)[C@H](C)NC(=O)[C@H](CCC(N)=O)NC(=O)CNC(=O)[C@H](CCC(=O)O)NC(=O)[C@H](CC(C)C)NC(=O)[C@H](Cc1ccc(O)cc1)NC(=O)[C@H](CO)NC(=O)[C@H](CO)NC(=O)[C@@H](NC(=O)[C@H](CC(=O)O)NC(=O)[C@H](CO)NC(=O)[C@@H](NC(=O)[C@H](Cc1ccccc1)NC(=O)[C@@H](NC(=O)CNC(=O)[C@H](CCC(=O)O)N(C)C(=O)[C@H](C)NC(=O)[C@@H](N)Cc1cnc[nH]1)[C@@H](C)O)[C@@H](C)O)C(C)C)C(=O)N[C@@H](C)C(=O)N[C@@H](Cc1c[nH]c2ccccc12)C(=O)N[C@@H](CC(C)C)C(=O)N[C@H](C(=O)N[C@@H](CCCCN)C(=O)NCC(=O)N[C@@H](CCCNC(=N)N)C(N)=O)C(C)C | > 96 | 14.612 | 100 | 100 | 100 | 100 | 100 | – | – | – | – |
| CC[C@H](C)[C@H](NC(=O)[C@H](Cc1ccccc1)NC(=O)[C@H](CCC(=O)O)NC(=O)[C@H](CCCCN)NC(=O)[C@H](C)NC(=O)[C@H](C)NC(=O)[C@H](CCC(N)=O)NC(=O)CNC(=O)[C@H](CCC(=O)O)NC(=O)[C@H](CC(C)C)NC(=O)[C@H](Cc1ccc(O)cc1)NC(=O)[C@H](CO)NC(=O)[C@H](CO)NC(=O)[C@@H](NC(=O)[C@H](CC(=O)O)NC(=O)[C@H](CO)NC(=O)[C@@H](NC(=O)[C@H](Cc1ccccc1)NC(=O)[C@@H](NC(=O)CNC(=O)[C@H](CCC(=O)O)NC(=O)[C@H](C)NC(=O)[C@@H](N)Cc1c[nH]cn1)[C@@H](C)O)[C@@H](C)O)C(C)C)C(=O)N[C@@H](C)C(=O)N[C@@H](Cc1c[nH]c2ccccc12)C(=O)N[C@@H](CC(C)C)C(=O)N[C@H](C(=O)N[C@@H](CCCCN)C(=O)NCC(=O)N[C@@H](CCCNC(=N)N)C(N)=O)C(C)C | – | 14.611 | – | – | – | – | – | – | – | – | – |
| CC[C@H](C)[C@H](NC(=O)[C@H](Cc1ccccc1)NC(=O)[C@H](CCC(=O)O)NC(=O)[C@H](CCCCN)NC(=O)[C@H](C)NC(=O)[C@H](C)NC(=O)[C@H](CCC(N)=O)NC(=O)CNC(=O)[C@H](CCC(=O)O)NC(=O)[C@H](CC(C)C)NC(=O)[C@H](Cc1ccc(O)cc1)NC(=O)[C@H](CO)NC(=O)[C@H](CO)NC(=O)[C@@H](NC(=O)[C@H](CC(=O)O)NC(=O)[C@H](CO)NC(=O)[C@@H](NC(=O)[C@H](Cc1ccccc1)N(C)C(=O)[C@@H](NC(=O)CNC(=O)[C@H](CCC(=O)O)NC(=O)[C@H](C)NC(=O)[C@@H](N)Cc1cnc[nH]1)[C@@H](C)O)[C@@H](C)O)C(C)C)C(=O)N[C@@H](C)C(=O)N[C@@H](Cc1c[nH]c2ccccc12)C(=O)N[C@@H](CC(C)C)C(=O)N[C@H](C(=O)N[C@@H](CCCCN)C(=O)NCC(=O)N[C@@H](CCCNC(=N)N)C(=O)O)C(C)C | 3.46 | 14.127 | 79.4 | 66.3 | 42.7 | 17.6 | 6.1 | – | – | – | – |
| CC[C@H](C)[C@H](NC(=O)[C@H](Cc1ccccc1)NC(=O)[C@H](CCC(=O)O)NC(=O)[C@H](CCCCN)NC(=O)[C@H](C)NC(=O)[C@H](C)NC(=O)[C@H](CCC(N)=O)NC(=O)CNC(=O)[C@H](CCC(=O)O)NC(=O)[C@H](CC(C)C)NC(=O)[C@H](Cc1ccc(O)cc1)NC(=O)[C@H](CO)NC(=O)[C@H](CO)NC(=O)[C@@H](NC(=O)[C@H](CC(=O)O)NC(=O)[C@H](CO)NC(=O)[C@@H](NC(=O)[C@H](Cc1ccccc1)NC(=O)[C@@H](NC(=O)CNC(=O)C[C@@H](CCC(=O)O)NC(=O)[C@H](C)NC(=O)[C@@H](N)Cc1cnc[nH]1)[C@@H](C)O)[C@@H](C)O)C(C)C)C(=O)N[C@@H](C)C(=O)N[C@@H](Cc1c[nH]c2ccccc12)C(=O)N[C@@H](CC(C)C)C(=O)N[C@H](C(=O)N[C@@H](CCCCN)C(=O)NCC(=O)N[C@@H](CCCNC(=N)N)C(N)=O)C(C)C | 96 | 14.669 | – | – | – | – | 82.9 | 72.7 | 61.3 | 54 | 41.7 |
| CC[C@H](C)[C@H](NC(=O)[C@H](Cc1ccccc1)NC(=O)[C@H](CCC(=O)O)NC(=O)[C@H](CCCCN)NC(=O)[C@H](C)NC(=O)[C@H](C)NC(=O)[C@H](CCC(N)=O)NC(=O)CNC(=O)[C@H](CCC(=O)O)NC(=O)[C@H](CC(C)C)NC(=O)[C@H](Cc1ccc(O)cc1)NC(=O)[C@H](CO)NC(=O)[C@H](CO)NC(=O)[C@@H](NC(=O)[C@H](CC(=O)O)NC(=O)[C@H](CO)NC(=O)[C@@H](NC(=O)[C@H](Cc1ccccc1)NC(=O)[C@@H](NC(=O)CN(C)C(=O)[C@H](CCC(=O)O)NC(=O)[C@H](C)NC(=O)[C@@H](N)Cc1cnc[nH]1)[C@@H](C)O)[C@@H](C)O)C(C)C)C(=O)N[C@@H](C)C(=O)N[C@@H](Cc1c[nH]c2ccccc12)C(=O)N[C@@H](CC(C)C)C(=O)N[C@H](C(=O)N[C@@H](CCCCN)C(=O)NCC(=O)N[C@@H](CCCNC(=N)N)C(N)=O)C(C)C | 2.42 | 14.289 | 75.1 | 55.5 | 32.6 | 15.1 | 7.5 | – | – | – | – |
| CC[C@H](C)[C@H](NC(=O)[C@H](Cc1ccccc1)NC(=O)[C@H](CCC(=O)O)NC(=O)[C@H](CCCCN)NC(=O)[C@H](C)NC(=O)[C@H](C)NC(=O)[C@H](CCC(N)=O)NC(=O)CNC(=O)[C@H](CCC(=O)O)NC(=O)[C@H](CC(C)C)NC(=O)[C@H](Cc1ccc(O)cc1)NC(=O)[C@H](CO)NC(=O)[C@H](CO)NC(=O)[C@@H](NC(=O)[C@H](CC(=O)O)NC(=O)[C@H](CO)NC(=O)[C@@H](NC(=O)[C@H](Cc1ccccc1)NC(=O)[C@H]([C@@H](C)O)N(C)C(=O)CNC(=O)[C@H](CCC(=O)O)NC(=O)[C@H](C)NC(=O)[C@@H](N)Cc1cnc[nH]1)[C@@H](C)O)C(C)C)C(=O)N[C@@H](C)C(=O)N[C@@H](Cc1c[nH]c2ccccc12)C(=O)N[C@@H](CC(C)C)C(=O)N[C@H](C(=O)N[C@@H](CCCCN)C(=O)NCC(=O)N[C@@H](CCCNC(=N)N)C(N)=O)C(C)C | 2.7 | 14.721 | 69.8 | 55.4 | 33.2 | 10.7 | 0 | – | – | – | – |
| CC[C@H](C)[C@H](NC(=O)[C@H](Cc1ccccc1)NC(=O)[C@H](CCC(=O)O)NC(=O)[C@H](CCCCN)NC(=O)[C@H](C)NC(=O)[C@H](C)NC(=O)[C@H](CCC(N)=O)NC(=O)CNC(=O)[C@H](CCC(=O)O)NC(=O)[C@H](CC(C)C)NC(=O)[C@H](Cc1ccc(O)cc1)NC(=O)[C@H](CO)NC(=O)[C@H](CO)NC(=O)[C@@H](NC(=O)[C@H](CC(=O)O)NC(=O)[C@H](CO)NC(=O)[C@@H](NC(=O)[C@H](Cc1ccccc1)NC(=O)[C@@H](NC(=O)CNC(=O)[C@H](CCC(=O)O)NC(=O)[C@H](C)CNC(=O)[C@@H](N)Cc1cnc[nH]1)[C@@H](C)O)[C@@H](C)O)C(C)C)C(=O)N[C@@H](C)C(=O)N[C@@H](Cc1c[nH]c2ccccc12)C(=O)N[C@@H](CC(C)C)C(=O)N[C@H](C(=O)N[C@@H](CCCCN)C(=O)NCC(=O)N[C@@H](CCCNC(=N)N)C(N)=O)C(C)C | > 96 | 14.005 | – | – | – | – | 100 | 100 | 100 | 100 | 100 |
| CC[C@H](C)[C@H](NC(=O)[C@H](Cc1ccccc1)NC(=O)[C@H](CCC(=O)O)NC(=O)[C@H](CCCCN)NC(=O)[C@H](C)NC(=O)[C@H](C)NC(=O)[C@H](CCC(N)=O)NC(=O)CNC(=O)[C@H](CCC(=O)O)NC(=O)[C@H](CC(C)C)NC(=O)[C@H](Cc1ccc(O)cc1)NC(=O)[C@H](CO)NC(=O)[C@H](CO)NC(=O)[C@@H](NC(=O)[C@H](CC(=O)O)NC(=O)[C@H](CO)NC(=O)[C@@H](NC(=O)[C@H](Cc1ccccc1)NC(=O)[C@@H](NC(=O)CNC(=O)[C@H](CCC(=O)O)NC(=O)[C@H](C)N(C)C(=O)[C@@H](N)Cc1cnc[nH]1)[C@@H](C)O)[C@@H](C)O)C(C)C)C(=O)N[C@@H](C)C(=O)N[C@@H](Cc1c[nH]c2ccccc12)C(=O)N[C@@H](CC(C)C)C(=O)N[C@H](C(=O)N[C@@H](CCCCN)C(=O)NCC(=O)N[C@@H](CCCNC(=N)N)C(N)=O)C(C)C | 0.83 | 14.702 | 42.7 | 17.6 | 4.3 | 0 | 0 | – | – | – | – |
